Where two headings read alike, the source gives them in different places.
What was measured:
Type in all cases: cell-based
[1] = system: human cervix carcinoma (HeLa); assay: Growth inhibitory effects on HeLa cells (MTT staining); conditions: concentration 10^-5 M, read-out: inhibition of cell growth
Procedure: (§1) Cell lines. Human tumor pancreatic carcinoma cells (MiaPaCa 2), laryngeal carcinoma (Hep 2), human cervical carcinoma (HeLa) and normal human fibroblasts (Hef 2) were grown as monolayers at 37 °C in a humidified atmosphere with 5% CO2 in DMEM supplemented with 10% fetal calf serum, 2 mM glutamine, 100 U/ml penicillin and […] streptomycin.
(§2) Cell Cytotoxicity. To the purpos of the experiments the cells ([…]; 2x10^4 cells/ml) were plated onto 96-microwell plates. After 24 hours, test compounds at different concentrations (10^-4-10^-8 M), were added to the cells. Three days later, cell viability was determined by […]. The control cells were grown under same conditions without addition of test compounds. […] This method depends on the conversion of a water-soluble tetrazolium salt (MTT) to a purple colored formazan precipitate. The reaction affected by dehydrogenase enzymes active only in living cells. Tests were carried out in 96-well microculture plates. 10^4 viable tumor cells per well at 4 h incubation time 20 µg MTT7100 µl total medium volume. Formazan crystals were dissolved in DMSO and the plates were immediately measured on a microculture plate reader at 540 nm.

[2] = system: laryngeal carcinoma (Hep 2); assay: Growth inhibitory effects on Hep 2 cells (MTT staining); conditions: Homo sapiens, concentration 10^-5 M, read-out: inhibition of cell growth
Procedure: as §1, §2

[3] = system: human tumor pancreatic carcinoma (MiaPaCa 2); assay: Growth inhibitory effects on MiaPaCa 2 cells (MTT staining); conditions: MIA PaCa-2, concentration 10^-5 M, read-out: inhibition of cell growth
Procedure: as §1, §2

[4] = system: normal human fibroblasts (Hef 2); assay: Growth inhibitory effects on normal Hef 2 fibroblasts (MTT staining); conditions: Fibroblast, Hef 2 normal cells, concentration 10^-5 M, read-out: inhibition of cell growth
Procedure: as §1, §2

SMILES	inhibition at 10 µM [1] [%]	inhibition at 10 µM ([2]; Hep 2) [%]	inhibition at 10 µM [3] [%]	inhibition at 10 µM ([2]; HEp-2, Hep 2) [%]	inhibition at 10 µM [4] [%]
Cc1ccc(S(=O)(=O)n2cc(Br)c(=O)[nH]c2=O)cc1 [compound 2]	85	20	80		
Cc1ccc(S(=O)(=O)n2ccc(N)nc2=O)cc1 [compound 4]	85		65	20	20

From patent EP0877022A1, “Synthesis of the sulfonylpyrimidine derivatives with anticancer activity” (Herbos d.d., priority 1997, dated 1998)
